Target: T1, Cbl-b (Homo sapiens, UniProt Q13191)
T1 construct: biotin (biotinylated protein)
Assay: Cbl-b probe displacement HTRF binding assay
Conditions: 0.4 nM Cbl-b, 150 nM BODIPY probe
Procedure, shortened: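 Compound competes with BODIPY probe (150 nM) for biotinylated Cbl-b (0.4 nM) in HEPES/NaCl/Triton/TCEP/BSA buffer; 60 min preincubation, 15 min with probe, room temperature. Tb-streptavidin HTRF read; % displacement vs DMSO and no-protein controls, IC50 from four-parameter fit.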

T1 sequence (Q13191 whole entry, species assumed): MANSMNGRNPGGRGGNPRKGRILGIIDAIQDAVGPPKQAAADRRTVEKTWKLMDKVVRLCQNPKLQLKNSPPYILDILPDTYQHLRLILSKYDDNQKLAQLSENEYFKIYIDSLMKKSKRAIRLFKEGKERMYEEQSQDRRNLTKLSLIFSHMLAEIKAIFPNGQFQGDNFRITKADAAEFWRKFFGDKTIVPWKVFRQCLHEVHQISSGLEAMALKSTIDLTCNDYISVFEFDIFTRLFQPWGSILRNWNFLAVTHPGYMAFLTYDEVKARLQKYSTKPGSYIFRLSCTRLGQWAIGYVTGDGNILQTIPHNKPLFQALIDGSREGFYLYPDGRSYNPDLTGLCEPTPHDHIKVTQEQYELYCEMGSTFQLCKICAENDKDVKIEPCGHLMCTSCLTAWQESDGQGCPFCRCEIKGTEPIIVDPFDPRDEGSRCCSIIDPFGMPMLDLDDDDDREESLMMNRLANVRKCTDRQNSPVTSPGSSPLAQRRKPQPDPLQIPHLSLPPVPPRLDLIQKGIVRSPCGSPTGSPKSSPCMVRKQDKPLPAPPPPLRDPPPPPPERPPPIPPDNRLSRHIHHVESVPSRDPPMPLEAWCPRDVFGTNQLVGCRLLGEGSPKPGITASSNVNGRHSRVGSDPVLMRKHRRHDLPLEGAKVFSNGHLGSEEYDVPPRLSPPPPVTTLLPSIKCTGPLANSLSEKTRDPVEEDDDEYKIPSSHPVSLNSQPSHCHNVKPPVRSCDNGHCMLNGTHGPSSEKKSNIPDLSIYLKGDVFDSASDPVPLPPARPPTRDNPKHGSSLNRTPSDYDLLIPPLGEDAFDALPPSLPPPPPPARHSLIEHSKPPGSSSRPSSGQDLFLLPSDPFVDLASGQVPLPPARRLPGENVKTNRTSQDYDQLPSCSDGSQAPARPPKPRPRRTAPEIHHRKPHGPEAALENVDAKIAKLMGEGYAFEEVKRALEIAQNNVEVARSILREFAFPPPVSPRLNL

IC50, < 100 nM:
CCOc1cc(-c2ccc(C#N)cc2C(=O)N2CC(F)(F)C2)cc(NC(=O)c2cc(CNCC(C)C)cn(C3CC3)c2=O)n1 [Example 202], CCOc1cc(-c2c(F)cc(Cl)cc2C(=O)N2CC(F)(F)C2)cc(NC(=O)c2cc(CN[C@@H](C)[C@H](C)OC)cn(C3CC3)c2=O)n1 [Example 203], CC(C)Nc1cc(-c2c(F)cc(Cl)cc2C(=O)N2CC(F)(F)C2)cc(NC(=O)c2cc(CN[C@@H](C)C3CC3)cn(C3CC3)c2=O)n1 [Example 204], CO[C@@H](C)[C@H](C)NCc1cc(C(=O)Nc2cc(-c3ccc(OC(F)F)cc3C(=O)N3CC(F)(F)C3)cc(OC(C)C)n2)c(=O)n(C2CC2)c1 [Example 205], CCOc1cc(-c2ccc(C#N)cc2C(=O)N2CC(F)(F)C2)cc(NC(=O)c2cc(CNC[C@H](C)OC)cn(C3CC3)c2=O)n1 [Example 206], CCOc1cc(-c2c(F)cc(Cl)cc2C(=O)N2CC(F)(F)C2)cc(NC(=O)c2cc(CN[C@@H](C)C3CCC3)cn(C3CC3)c2=O)n1 [Example 207], CC(C)Nc1cc(-c2c(F)cc(Cl)cc2C(=O)N2CC(F)(F)C2)cc(NC(=O)c2cc(CNC[C@@H]3CCCO3)cn(C3CC3)c2=O)n1 [Example 208], CC(C)Oc1cc(-c2ccc(OC(F)F)cc2C(=O)N2CC(F)(F)C2)cc(NC(=O)c2cc(CNC[C@@H]3CCCO3)cn(C3CC3)c2=O)n1 [Example 209], CCOc1cc(-c2c(F)cc(Cl)cc2C(=O)N2CC(F)(F)C2)cc(NC(=O)c2cc(CNC[C@@H]3CCCO3)cn(C3CC3)c2=O)n1 [Example 210], CC(C)CNCc1cc(C(=O)Nc2cc(-c3ccc(C#N)cc3C(=O)N3CC(F)(F)C3)cc(OC(C)C)n2)c(=O)n(C)c1 [Example 211], CCOc1cc(-c2ccc(C#N)cc2C(=O)N2CC(F)(F)C2)cc(NC(=O)c2cc(CNC[C@@H]3CCCO3)cn(C3CC3)c2=O)n1 [Example 212], CCOc1cc(-c2c(F)cc(Cl)cc2C(=O)N2CC(F)(F)C2)cc(NC(=O)c2cc(CNCC(C)C)cn(C3CC3)c2=O)n1 [Example 213], CC(C)Oc1cc(-c2ccc(C#N)cc2C(=O)N2CC(F)(F)C2)cc(NC(=O)c2cc(CN[C@@H](C)C(C)C)cn(C)c2=O)n1 [Example 214], CO[C@@H](C)CNCc1cc(C(=O)Nc2cc(-c3cc(F)c(Cl)cc3C(=O)N3CC(F)(F)C3)cc(C3CC3)n2)c(=O)n(C2CC2)c1 [Example 215], C[C@H](NCc1cc(C(=O)Nc2cc(-c3cc(F)c(Cl)cc3C(=O)N3CC(F)(F)C3)cc(C3CC3)n2)c(=O)n(C2CC2)c1)C1CCC1 [Example 216], CO[C@@H](C)CNCc1cc(C(=O)Nc2cc(-c3ccc(Cl)cc3C(=O)N3CC(F)(F)C3)cc(NC(C)C)n2)c(=O)n(C2CC2)c1 [Example 217], C[C@H](NCc1cc(C(=O)Nc2cc(-c3c(F)cc(C#N)cc3C(=O)N3CC(F)(F)C3)cc(C3CC3)n2)c(=O)n(C2CC2)c1)C1CCC1 [Example 218], CC(C)Nc1cc(-c2ccc(Cl)cc2C(=O)N2CC(F)(F)C2)cc(NC(=O)c2cc(CN[C@@H](C)C3CC3)cn(C3CC3)c2=O)n1 [Example 219], CC(C)Nc1cc(-c2ccc(Cl)cc2C(=O)N2CC(F)(F)C2)cc(NC(=O)c2cc(CN[C@@H](C)C3CCC3)cn(C3CC3)c2=O)n1 [Example 221], CO[C@@H](C)[C@H](C)NCc1cc(C(=O)Nc2cc(-c3c(F)cc(C#N)cc3C(=O)N3CC(F)(F)C3)cc(OC(C)C)n2)c(=O)n(C2CC2)c1 [Example 222], CC(C)Nc1cc(-c2ccc(Cl)cc2C(=O)N2CC(F)(F)C2)cc(NC(=O)c2cc(CNC[C@@H]3CCCO3)cn(C3CC3)c2=O)n1 [Example 223], CO[C@@H](C)CNCc1cc(C(=O)Nc2cc(-c3c(F)cc(C#N)cc3C(=O)N3CC(F)(F)C3)cc(C3CC3)n2)c(=O)n(C2CC2)c1 [Example 224], CCOc1cc(-c2ccc(Cl)cc2C(=O)N2CC(F)(F)C2)cc(NC(=O)c2cc(CNC[C@@H]3CCCO3)cn(C3CC3)c2=O)n1 [Example 225], CO[C@@H](C)[C@H](C)NCc1cc(C(=O)Nc2cc(-c3c(F)cc(C#N)cc3C(=O)N3CC(F)(F)C3)cc(OC(C)C)n2)c(=O)n(C)c1 [Example 226], CC(C)Oc1cc(-c2c(F)cc(C#N)cc2C(=O)N2CC(F)(F)C2)cc(NC(=O)c2cc(CN[C@@H](C)C3CCC3)cn(C)c2=O)n1 [Example 227], CO[C@@H](C)CNCc1cc(C(=O)Nc2cc(-c3c(F)cc(C#N)cc3C(=O)N3CC(F)(F)C3)cc(C3CC3)n2)c(=O)n(C)c1 [Example 228], CO[C@@H](C)[C@H](C)NCc1cc(C(=O)Nc2cc(-c3c(F)cc(C#N)cc3C(=O)N3CC(F)(F)C3)cc(C3CC3)n2)c(=O)n(C)c1 [Example 229], CC(C)CNCc1cc(C(=O)Nc2cc(-c3c(F)cc(C#N)cc3C(=O)N3CC(F)(F)C3)cc(C3CC3)n2)c(=O)n(C2CC2)c1 [Example 230], N#Cc1cc(F)c(-c2cc(NC(=O)c3cc(CNC[C@@H]4CCCO4)cn(C4CC4)c3=O)nc(C3CC3)c2)c(C(=O)N2CC(F)(F)C2)c1 [Example 231], C[C@H](NCc1cc(C(=O)Nc2cc(-c3c(F)cc(C#N)cc3C(=O)N3CC(F)(F)C3)cc(C3CC3)n2)c(=O)n(C2CC2)c1)C1CC1 [Example 232], CC(C)Oc1cc(-c2c(F)cc(C#N)cc2C(=O)N2CC(F)(F)C2)cc(NC(=O)c2cc(CN[C@@H](C)C3CC3)cn(C)c2=O)n1 [Example 233], CC(C)CNCc1cc(C(=O)Nc2cc(-c3c(F)cc(C#N)cc3C(=O)N3CC(F)(F)C3)cc(OC(C)C)n2)c(=O)n(C)c1 [Example 234], CO[C@@H](C)CNCc1cc(C(=O)Nc2cc(-c3c(F)cc(C#N)cc3C(=O)N3CC(F)(F)C3)cc(OC(C)C)n2)c(=O)n(C)c1 [Example 235], C[C@H](NCc1cc(C(=O)Nc2cc(-c3c(F)cc(C#N)cc3C(=O)N3CC(F)(F)C3)cc(C3CC3)n2)c(=O)n(C)c1)C1CC1 [Example 236], COCCNCc1cc(C(=O)Nc2cc(-c3c(F)cc(C#N)cc3C(=O)N3CC(F)(F)C3)cc(C3CC3)n2)c(=O)n(C2CC2)c1 [Example 237], CCOc1cc(-c2ccc(Cl)cc2C(=O)N2CC(F)(F)C2)cc(NC(=O)c2cc(CN[C@@H](C)COC)cn(C3CC3)c2=O)n1 [Example 238], CC(C)Oc1cc(-c2c(F)cc(C#N)cc2C(=O)N2CC(F)(F)C2)cc(NC(=O)c2cc(CNC[C@@H]3CCCO3)cn(C)c2=O)n1 [Example 239], CCOc1cc(-c2ccc(Cl)cc2C(=O)N2CC(F)(F)C2)cc(NC(=O)c2cc(CNCC3CC3)cn(C3CC3)c2=O)n1 [Example 240], Cn1cc(CNC[C@@H]2CCCO2)cc(C(=O)Nc2cc(-c3c(F)cc(C#N)cc3C(=O)N3CC(F)(F)C3)cc(C3CC3)n2)c1=O [Example 241], CC(C)Oc1cc(-c2ccc(C#N)cc2C(=O)N2CC(F)(F)C2)cc(NC(=O)c2cc(CN[C@@H](C)C(C)(C)F)cn(C3CC3)c2=O)n1 [Example 242], C[C@@H](CC(F)(F)F)NCc1cc(C(=O)Nc2cc(-c3ccc(C#N)cc3C(=O)N3CC(F)(F)C3)cc(C3CC3)n2)c(=O)n(C2CC2)c1 [Example 243], CC(C)(F)CNCc1cc(C(=O)Nc2cc(-c3ccc(C#N)cc3C(=O)N3CC(F)(F)C3)cc(C3CC3)n2)c(=O)n(C2CC2)c1 [Example 244], CCNc1cc(-c2ccc(Cl)cc2C(=O)N2CC(F)C2)cc(NC(=O)c2cc(CNC[C@H](C)OC)cn(C3CC3)c2=O)n1 [Example 245], CC(C)Oc1cc(-c2ccc(C#N)cc2C(=O)N2CC(F)C2)cc(NC(=O)c2cc(CN[C@@H](C)C3CCC3)cn(C)c2=O)n1 [Example 246], CCOc1cc(-c2ccc(OC(F)F)cc2C(=O)N2CC(F)C2)cc(NC(=O)c2cc(CN[C@@H](C)C3CCC3)cn(C3CC3)c2=O)n1 [Example 247], CO[C@@H](C)CNCc1cc(C(=O)Nc2cc(-c3ccc(Cl)cc3C(=O)N3CC(F)C3)cc(C3CC3)n2)c(=O)n(C2CC2)c1 [Example 248], CC(C)Oc1cc(-c2ccc(OC(F)F)cc2C(=O)N2CC(F)C2)cc(NC(=O)c2cc(CN[C@@H](C)C3CCC3)cn(C3CC3)c2=O)n1 [Example 249], CC(C)Oc1cc(-c2ccc(OC(F)F)cc2C(=O)N2CC(F)C2)cc(NC(=O)c2cc(CN[C@@H](C)C3CCC3)cn(C)c2=O)n1 [Example 250], CC(C)CNCc1cc(C(=O)Nc2cc(-c3ccc(Cl)cc3C(=O)N3CC(F)C3)cc(OC(C)C)n2)c(=O)n(C2CC2)c1 [Example 251], CO[C@@H](C)CNCc1cc(C(=O)Nc2cc(-c3ccc(OC(F)F)cc3C(=O)N3CC(F)C3)cc(OC(C)C)n2)c(=O)n(C2CC2)c1 [Example 252], CO[C@@H](C)CNCc1cc(C(=O)Nc2cc(-c3ccc(Cl)cc3C(=O)N3CC(F)C3)cc(OC(C)C)n2)c(=O)n(C2CC2)c1 [Example 253], COc1ccc(-c2cc(NC(=O)c3cc(CN[C@@H](C)C4CCC4)cn(C4CC4)c3=O)nc(OC(C)C)c2)c(C(=O)N2CC(F)C2)c1 [Example 254], CCOc1cc(-c2ccc(Cl)cc2C(=O)N2CC(F)C2)cc(NC(=O)c2cc(CNC[C@H](C)OC)cn(C3CC3)c2=O)n1 [Example 255], CC(C)Oc1cc(-c2ccc(Cl)cc2C(=O)N2CC(F)C2)cc(NC(=O)c2cc(CN[C@@H](C)C3CCC3)cn(C3CC3)c2=O)n1 [Example 256], CCOc1cc(-c2ccc(OC(F)F)cc2C(=O)N2CC(F)C2)cc(NC(=O)c2cc(CN[C@@H](C)C3CCC3)cn(C)c2=O)n1 [Example 257], CO[C@@H](C)CNCc1cc(C(=O)Nc2cc(-c3ccc(Cl)cc3C(=O)N3CC(F)C3)cc(NC(C)C)n2)c(=O)n(C2CC2)c1 [Example 258]

Reference: patent publication US20260116868A1 (Arcus Biosciences, Inc., priority 2023, published 2026)
